IC50 data for 2 compounds are collected here from BindingDB's records for doi:10.1111/cbdd.12787 (Shandong University, 2016).

What all share (test): In vitro HDACs Inhibition Fluorescence Assay
One assay has as its target Histone deacetylase 4 (Homo sapiens, UniProt P56524). How it is done: (§1) Afterincubation at 37 °C for 10 min, 40 μL of fluorogenic substrate (Boc-Lys(Ac)-AMC for HeLa nuclear extracts; Ac-Leu- GlyLyS(Ac)-AMC for HDAC1, HDAC6, and HDAC11; Ac-Leu-GlyLyS(Tfa)-AMC for HDAC4 and HDAC8) was added, and then, the mixture was incubated at 37 °C for 30 min. The mixture was stopped by addition of 100 μL of developer containing trypsin and TSA afterward. Over the next incubation at 37 °C for 20 min, fluorescence intensity was measured using a microplate reader at excitation and emission wavelengths of 390 and 460 nm, respectively.

Another assay deals with T1, Histone deacetylase 11 (Homo sapiens, UniProt Q96DB2).
T1 sequence (Q96DB2 whole entry): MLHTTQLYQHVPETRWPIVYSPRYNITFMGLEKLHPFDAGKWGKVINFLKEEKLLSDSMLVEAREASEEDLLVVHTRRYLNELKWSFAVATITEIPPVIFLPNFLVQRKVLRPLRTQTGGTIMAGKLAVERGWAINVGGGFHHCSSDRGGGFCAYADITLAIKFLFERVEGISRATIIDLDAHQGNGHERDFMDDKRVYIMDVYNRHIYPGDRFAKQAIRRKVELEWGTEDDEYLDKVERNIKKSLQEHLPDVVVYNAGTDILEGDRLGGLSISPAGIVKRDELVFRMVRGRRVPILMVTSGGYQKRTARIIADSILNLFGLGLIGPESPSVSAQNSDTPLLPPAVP
As for the experimental part: as §1

The next assay addresses T2, Histone deacetylase 6 (Homo sapiens, UniProt Q9UBN7).
T2 sequence (Q9UBN7 whole entry): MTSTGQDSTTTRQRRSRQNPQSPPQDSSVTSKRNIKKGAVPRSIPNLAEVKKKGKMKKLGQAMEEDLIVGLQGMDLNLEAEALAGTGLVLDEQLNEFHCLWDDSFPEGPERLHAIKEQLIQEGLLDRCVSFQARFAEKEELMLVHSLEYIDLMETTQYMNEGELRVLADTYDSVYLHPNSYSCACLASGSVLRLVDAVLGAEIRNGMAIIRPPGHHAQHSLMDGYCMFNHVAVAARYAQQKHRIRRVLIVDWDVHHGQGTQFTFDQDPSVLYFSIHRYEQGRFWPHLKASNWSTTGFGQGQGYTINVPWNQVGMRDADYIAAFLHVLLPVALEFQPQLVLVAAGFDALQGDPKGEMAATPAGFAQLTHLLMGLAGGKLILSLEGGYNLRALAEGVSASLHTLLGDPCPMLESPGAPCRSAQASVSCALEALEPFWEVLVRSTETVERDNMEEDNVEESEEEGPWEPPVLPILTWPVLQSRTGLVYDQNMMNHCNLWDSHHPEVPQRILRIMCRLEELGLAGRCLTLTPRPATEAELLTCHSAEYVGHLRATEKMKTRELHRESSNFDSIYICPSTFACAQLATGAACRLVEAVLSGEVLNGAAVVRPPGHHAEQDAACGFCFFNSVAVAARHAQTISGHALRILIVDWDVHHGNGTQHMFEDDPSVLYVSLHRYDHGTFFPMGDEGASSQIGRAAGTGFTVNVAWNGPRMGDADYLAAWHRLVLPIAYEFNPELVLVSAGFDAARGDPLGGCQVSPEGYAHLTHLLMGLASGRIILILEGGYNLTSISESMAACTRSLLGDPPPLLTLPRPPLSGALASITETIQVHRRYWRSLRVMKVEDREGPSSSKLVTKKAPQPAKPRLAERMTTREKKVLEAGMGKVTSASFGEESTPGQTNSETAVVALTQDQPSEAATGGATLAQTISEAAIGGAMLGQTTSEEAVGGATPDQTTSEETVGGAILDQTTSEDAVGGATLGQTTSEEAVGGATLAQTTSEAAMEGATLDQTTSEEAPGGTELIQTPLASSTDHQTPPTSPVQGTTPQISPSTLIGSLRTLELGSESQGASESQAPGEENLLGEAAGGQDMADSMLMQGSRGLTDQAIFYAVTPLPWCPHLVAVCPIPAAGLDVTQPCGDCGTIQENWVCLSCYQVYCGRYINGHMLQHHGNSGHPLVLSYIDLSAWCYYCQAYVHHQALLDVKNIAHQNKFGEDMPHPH
How it is done:
as §1

The target of another assay is T3, Histone deacetylase 8 (Homo sapiens, UniProt Q9BY41).
T3 sequence (Q9BY41 whole entry): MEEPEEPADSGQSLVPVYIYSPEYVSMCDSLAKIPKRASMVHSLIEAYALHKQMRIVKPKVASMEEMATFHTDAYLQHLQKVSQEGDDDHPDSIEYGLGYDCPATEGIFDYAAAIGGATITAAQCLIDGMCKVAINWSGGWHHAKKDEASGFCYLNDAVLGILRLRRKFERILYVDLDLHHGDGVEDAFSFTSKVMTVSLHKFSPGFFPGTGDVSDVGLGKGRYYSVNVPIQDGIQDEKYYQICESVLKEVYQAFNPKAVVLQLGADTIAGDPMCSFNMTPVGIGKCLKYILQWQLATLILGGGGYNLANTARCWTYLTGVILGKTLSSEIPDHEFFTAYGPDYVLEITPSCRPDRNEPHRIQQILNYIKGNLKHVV
As for the experimental part: as §1

Another assay deals with Histone deacetylase 1 (Homo sapiens, UniProt Q13547). As for the experimental part: as §1

pIC50: −log10 of the molar value.

Histone deacetylase 4, sequence (P56524 whole entry): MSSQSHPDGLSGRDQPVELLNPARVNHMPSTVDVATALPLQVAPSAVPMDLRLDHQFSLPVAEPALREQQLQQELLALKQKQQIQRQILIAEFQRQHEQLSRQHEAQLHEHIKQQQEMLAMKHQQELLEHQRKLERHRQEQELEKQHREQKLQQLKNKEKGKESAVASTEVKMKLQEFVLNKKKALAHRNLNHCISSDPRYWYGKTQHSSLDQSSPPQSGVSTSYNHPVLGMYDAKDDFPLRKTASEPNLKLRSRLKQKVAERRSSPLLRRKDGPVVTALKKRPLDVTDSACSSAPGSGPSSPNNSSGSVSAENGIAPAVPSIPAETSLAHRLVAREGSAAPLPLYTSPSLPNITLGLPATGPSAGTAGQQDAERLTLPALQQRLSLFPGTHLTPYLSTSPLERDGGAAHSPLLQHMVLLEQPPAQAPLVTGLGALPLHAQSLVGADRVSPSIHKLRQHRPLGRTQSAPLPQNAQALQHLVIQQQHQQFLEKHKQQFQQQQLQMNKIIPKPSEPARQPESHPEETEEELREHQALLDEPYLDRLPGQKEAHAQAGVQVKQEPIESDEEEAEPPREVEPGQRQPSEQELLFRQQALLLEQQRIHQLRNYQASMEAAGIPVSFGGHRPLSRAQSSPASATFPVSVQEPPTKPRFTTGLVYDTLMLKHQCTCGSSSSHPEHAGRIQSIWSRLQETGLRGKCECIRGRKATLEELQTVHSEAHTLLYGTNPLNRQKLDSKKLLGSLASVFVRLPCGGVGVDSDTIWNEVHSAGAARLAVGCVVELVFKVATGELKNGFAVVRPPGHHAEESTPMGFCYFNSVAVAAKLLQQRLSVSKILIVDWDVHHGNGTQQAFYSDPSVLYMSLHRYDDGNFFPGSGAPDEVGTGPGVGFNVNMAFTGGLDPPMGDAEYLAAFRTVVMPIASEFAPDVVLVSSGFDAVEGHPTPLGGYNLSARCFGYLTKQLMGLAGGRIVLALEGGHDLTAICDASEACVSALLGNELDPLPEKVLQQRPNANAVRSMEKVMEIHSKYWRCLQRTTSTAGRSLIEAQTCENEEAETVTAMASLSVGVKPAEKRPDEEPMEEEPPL
Histone deacetylase 1, sequence (Q13547 whole entry): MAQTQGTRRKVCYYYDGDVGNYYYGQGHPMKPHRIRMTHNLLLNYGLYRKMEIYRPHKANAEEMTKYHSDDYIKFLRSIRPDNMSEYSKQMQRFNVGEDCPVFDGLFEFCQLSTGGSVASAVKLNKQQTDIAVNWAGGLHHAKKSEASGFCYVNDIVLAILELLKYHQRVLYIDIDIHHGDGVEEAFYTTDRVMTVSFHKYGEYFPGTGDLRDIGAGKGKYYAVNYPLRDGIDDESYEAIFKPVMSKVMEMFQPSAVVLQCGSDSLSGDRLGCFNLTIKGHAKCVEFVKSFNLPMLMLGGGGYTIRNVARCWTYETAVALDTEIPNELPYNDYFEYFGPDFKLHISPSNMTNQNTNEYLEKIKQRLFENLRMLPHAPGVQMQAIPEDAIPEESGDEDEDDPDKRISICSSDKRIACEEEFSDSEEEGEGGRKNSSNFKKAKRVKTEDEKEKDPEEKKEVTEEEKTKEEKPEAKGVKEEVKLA

As a reminder, the pIC50 is the negative decadic logarithm of the IC50, by convention in mol/L. Compound `O=C(/C=C/c1cccc(S(=O)(=O)Nc2ccccc2)c1)NO` [Belinostat] showed a pIC50 on Histone deacetylase 4 of 5.01.
As to `O=C(/C=C/c1cccc(S(=O)(=O)N[C@H](C(=O)Nc2cccc3ccccc23)c2ccccc2)c1)NO` [(S,E)-N-hydroxy-3-(3-(N-(2-(naphthalen-1-ylamino)-2-oxo-1-phenylethyl)sulfamoyl)phenyl)acrylamide (10s)], the pIC50 at Histone deacetylase 4 was 4.64; at Histone deacetylase 11 it was 5.41; against Histone deacetylase 6, 7.10; at Histone deacetylase 8, 6.18; at Histone deacetylase 1, 7.03.
